Assay results reported in patent US11197836B2, “Topical vasoconstrictor preparations and methods for protecting cells during cancer chemotherapy and radiotherapy” (WISCONSIN ALUMNI RESEARCH FOUNDATION, priority 2005, dated 2021).

Tests used:
[1] = Dissolution and 24 hr solution status of vasoconstrictor salts in ethanol:PG:water diluents, Example 6; type: physicochemical
Method: Aliquots of each vasoconstrictor salt were weighed into glass test tubes. The volume of liquid necessary to achieve the indicated final drug concentration was then added.
(§1) The approximate amount of heat required to dissolve the vasoconstrictor salt in each diluent is indicated. Once diluted, samples were sealed and held at room temperature (22° C.) for 24 hours and then at 4° C. for 24 hours. Skin blanch induced by the topical formulation was assessed by applying freshly made, clear formulation to human skin shortly after initial mixing. Drug solutions were monitored for the appearance of precipitated material over a 48 hour observation period.

[2] = test system: radiation-induced alopecia; conditions: 950 mM in 50:30:20 ethanol:PG:water, 10 day old rats
Method: At specific time points, digital images were recorded to show areas of skin blanch in the epi-treated rats.

human oral mucosa = test system: human oral mucosa
Method: A QTip wetted with the 1 mM solution was used to swab the lower lip and oral mucosa adjoining the lower lip during the first 20 min. […] Images were taken and then scored for the degree of mucosal blanch observed.

[3] = test system: radiation-induced oral mucositis; assay: Radiation-induced oral mucositis in hamster cheek pouch, Example 16; conditions: for mucosal pathology: hamster cheek pouch
human skin = assay: Human skin blanch 20 min after topical application, Example 6; type: in vivo; conditions: for Skin Blanch: 600 mM, human skin, 20 min after topical application
Method: as §1

human forearm skin = assay: Human forearm skin blanch and irritation with permeation enhancers, Example 8; type: in vivo; conditions: water
Method: In samples where a clear, norepinephrine-containing solution was achieved, an aliquot (˜100 μl) was applied to a ˜1 cm^2 area of human forearm skin using a cotton swab. The extent of skin blanch (i.e., dermal vasculature constriction) beneath the application site was visually scored over the 60 min following application.

[4] = 50:30:20 Ethanol:PG:water, 750 mM
[5] = 15:30:55 Ethanol:PG:water, 1000 mM
[6] = 20:30:50 Ethanol:PG:water, 1500 mM
[7] = 60:0:40 isopropanol:PG:water, 1500 mM
[8] = 10 mM topical, human lip and oral mucosa
[9] = 0:50:50 Ethanol:PG:water, 1800 mM
[10] = 0:80:20 Ethanol:PG:water, 1800 mM
[11] = 12:30:58 Ethanol:PG:water, 450 mM
[12] = 12:30:58 Ethanol:PG:water, 600 mM
[13] = 12:30:58 Ethanol:PG:water, 750 mM
[14] = 15:30:55 Ethanol:PG:water, 600 mM
[15] = 33:33:33 Ethanol:PG:water, 1800 mM
[16] = 40:25:35 Ethanol:PG:water, 600 mM
[17] = 40:30:30 Ethanol:PG:water, 300 mM
[18] = 44:18:33 Ethanol:PG:water, 600 mM
[19] = 45:25:30 Ethanol:PG:water, 300 mM
[20] = 45:25:30 Ethanol:PG:water, 600 mM
[21] = 50:20:30 Ethanol:PG:water, 600 mM
[22] = 50:25:25 Ethanol:PG:water, 600 mM
[23] = 50:30:20 Ethanol:PG:water, 600 mM
[24] = 55:20:25 Ethanol:PG:water, 600 mM
[25] = 60:20:20 Ethanol:PG:water, 600 mM
[26] = 10:30:60 Ethanol:PG:water, 4000 mM
[27] = 10:30:60 Ethanol:PG:water, 5000 mM
[28] = 10:30:60 Ethanol:PG:water, 5500 mM
[29] = 12:30:58 Ethanol:PG:water, 3300 mM
[30] = 15:30:55 Ethanol:PG:water, 500 mM

With `CNC[C@H](O)c1ccc(O)c(O)c1.Cl` (racemic) [Epi (±), (±) epinephrine-HCl] the “Heat required to completely dissolve vasoconstrictor salt (#secs. at 100° C.)” value (“Heat required” below) [1, 4] was 0 s, the “Sample status after 24 hr at 4° C.” value [1, 4] was “clear” and the “Sample status after 24 hr at ~22° C.” value [1, 4] was “clear”. For the same molecule, the “skin blanch in treated skin field” value ([2]; by 120 min) was “single blanched field” and the “coat protection on day 20” value ([2]; four applications, 7.5 Gy whole-body γ radiation) was “confluent area of protected coat”.
With `CNC[C@H](O)c1ccc(O)c(O)c1.O=C(O)C(O)C(O)C(=O)O` [Epi, L (−) epinephrine-tartrate] the “Heat required” value [1, 5] was 0 s, the “Sample status after 24 hr at 4° C.” value [1, 5] was “clear” and the “Sample status after 24 hr at ~22° C.” value [1, 5] was “clear”. For the same molecule, the “Heat required” value [1, 6] was 0 s, the “Sample status after 24 hr at 4° C.” value [1, 6] was “clear” and the “Sample status after 24 hr at ~22° C.” value [1, 6] was “clear”. The “Heat required” value [1, 7] was 0 s, the “Sample status after 24 hr at 4° C.” value [1, 7] was “clear” and the “Sample status after 24 hr at ~22° C.” value [1, 7] was “clear”. The blanch response (human oral mucosa; 1 mM solution swabbed on lower lip and oral mucosa during first 20 min, human) was “little blanch response”, the duration of blanching (human oral mucosa; 10 mM topical, four times over 50 min, human lip and oral mucosa) was 1.5 to 2 h and the “time to clear blanching of lip and mucosa” value (human oral mucosa; [8]) was at most 20 min. For the same molecule, the “time to normal color lip and mucosa” value (human oral mucosa; [8]) was at most 3 h, the “topical concentration completely protective against γ radiation-induced pathology” value ([3]; hamster cheek pouch mucosal surface) was 400 μM and the mucosal pathology ([3]; large excess doses combined with 24 min of irradiation (40 Gy)) was “severe mucosal pathology”. For the same molecule, the mucosal pathology ([3]; large excess doses without irradiation) was “no discernible mucosal pathology”.
With `COc1ccc(OC)c(C(O)C(C)N)c1` (stereo not drawn) [Methoxamine] the “potency to induce skin blanch” value (human skin; applied to unbroken human skin) was “lacks the potency to adequately induce skin blanch”.
For `NC[C@H](O)c1ccc(O)c(O)c1.O=C(O)C(O)C(O)C(=O)O` [Nep, L (−) norepinephrine-tartrate], the “Heat required” value [1, 9] was 6 s, the “Sample status after 24 hr at 4° C.” value [1, 9] was “precipitate” and the “Sample status after 24 hr at ~22° C.” value [1, 9] was “precipitate”. The “Heat required” value [1, 10] was 24 s, the “Sample status after 24 hr at 4° C.” value [1, 10] was “precipitate” and the “Sample status after 24 hr at ~22° C.” value [1, 10] was “precipitate”. The “Heat required” value [1, 11] was 0 s, the “Sample status after 24 hr at 4° C.” value [1, 11] was “clear” and the “Sample status after 24 hr at ~22° C.” value [1, 11] was “clear”. The “Heat required” value [1, 12] was 0 s, the “Sample status after 24 hr at 4° C.” value [1, 12] was “clear” and the “Sample status after 24 hr at ~22° C.” value [1, 12] was “clear”. The “Heat required” value [1, 13] was 0 s, the “Sample status after 24 hr at 4° C.” value [1, 13] was “clear” and the “Sample status after 24 hr at ~22° C.” value [1, 13] was “clear”. The “Heat required” value [1, 14] was 0 s, the “Sample status after 24 hr at 4° C.” value [1, 14] was “clear” and the “Sample status after 24 hr at ~22° C.” value [1, 14] was “clear”. For the same molecule, the “Heat required” value [1, 5] was 0 s, the “Sample status after 24 hr at 4° C.” value [1, 5] was “clear” and the “Sample status after 24 hr at ~22° C.” value [1, 5] was “clear”. The “Heat required” value [1, 15] was 18 s, the “Sample status after 24 hr at 4° C.” value [1, 15] was “precipitate” and the “Sample status after 24 hr at ~22° C.” value [1, 15] was “precipitate”. The “Heat required” value [1, 16] was 2 s, the “Sample status after 24 hr at 4° C.” value [1, 16] was “clear” and the “Sample status after 24 hr at ~22° C.” value [1, 16] was “clear”. For the same molecule, the “Heat required” value [1, 17] was 2 s, the “Sample status after 24 hr at 4° C.” value [1, 17] was “clear” and the “Sample status after 24 hr at ~22° C.” value [1, 17] was “clear”. For the same molecule, the “Heat required” value [1, 18] was 2 s, the “Sample status after 24 hr at 4° C.” value [1, 18] was “clear” and the “Sample status after 24 hr at ~22° C.” value [1, 18] was “clear”. For the same molecule, the “Heat required” value [1, 19] was 2 s, the “Sample status after 24 hr at 4° C.” value [1, 19] was “clear” and the “Sample status after 24 hr at ~22° C.” value [1, 19] was “clear”. For the same molecule, the “Heat required” value [1, 20] was 2 s, the “Sample status after 24 hr at 4° C.” value [1, 20] was “clear” and the “Sample status after 24 hr at ~22° C.” value [1, 20] was “clear”. The “Heat required” value [1, 21] was 1 s, the “Sample status after 24 hr at 4° C.” value [1, 21] was “clear” and the “Sample status after 24 hr at ~22° C.” value [1, 21] was “clear”. The “Heat required” value [1, 22] was 1 s, the “Sample status after 24 hr at 4° C.” value [1, 22] was “clear” and the “Sample status after 24 hr at ~22° C.” value [1, 22] was “clear”. For the same molecule, the “Heat required” value [1, 23] was 1 s, the “Sample status after 24 hr at 4° C.” value [1, 23] was “clear” and the “Sample status after 24 hr at ~22° C.” value [1, 23] was “clear”. The “Heat required” value [1, 24] was 1 s, the “Sample status after 24 hr at 4° C.” value [1, 24] was “precipitate” and the “Sample status after 24 hr at ~22° C.” value [1, 24] was “precipitate”. For the same molecule, the “Heat required” value [1, 25] was 2 s, the “Sample status after 24 hr at 4° C.” value [1, 25] was “clear” and the “Sample status after 24 hr at ~22° C.” value [1, 25] was “clear”. The “Skin Blanch” value (human skin; 55:20:25 Ethanol:PG:water) was “+++++ (+++++ = 90-100% blanch)”, the “Skin Blanch” value (human skin; 60:20:20 Ethanol:PG:water) was “+++++ (+++++ = 90-100% blanch)” and the “Skin Irritation” value (human forearm skin; 300 mM Nep) was “No”. The “Skin Irritation” value (human forearm skin; 300 mM Nep, 0.8% SLS) was “No”, the “Skin Blanch” value (human forearm skin; 300 mM Nep, 0.8% SLS, 20 min) was 0 and the “Skin Blanch” value (human forearm skin; 300 mM Nep, 20 min after topical application) was 0. For the same molecule, the “Skin Irritation” value (human forearm skin; 300 mM Nep, ethanol) was “No”, the “Skin Irritation” value (human forearm skin; 300 mM Nep, ethanol, 0.8% SLS) was “Slight” and the “Skin Irritation” value (human forearm skin; 300 mM Nep, ethanol, 5% Menthone) was “Slight”. The “Skin Irritation” value (human forearm skin; 300 mM Nep, ethanol, PG) was “No”, the “Skin Irritation” value (human forearm skin; 300 mM Nep, ethanol, PG, 0.3% SLS) was “No” and the “Skin Irritation” value (human forearm skin; 300 mM Nep, ethanol, PG, 0.3% SLS, 5% Menthone) was “Yes”. For the same molecule, the “Skin Blanch” value (human forearm skin; 300 mM Nep, ethanol, PG, 0.3% SLS, 5% Menthone, 20 min) was “+++++ (+++++ = 90-100% blanch)”, the “Skin Irritation” value (human forearm skin; 300 mM Nep, ethanol, PG, 5% Methone) was “No” and the “Skin Irritation” value (human forearm skin; 300 mM Nep, ethanol, Transcutol) was “No”. The “Skin Irritation” value (human forearm skin; 300 mM Nep, ethanol, Transcutol, 0.4% SLS) was “No”, the “Skin Irritation” value (human forearm skin; 600 mM NEp, ethanol, PG) was “No” and the “Skin Blanch” value (human forearm skin; 600 mM NEp, ethanol, PG, 20 min) was “+++++ (+++++ = 90-100% blanch)”. For the same molecule, the “Skin Irritation” value (human forearm skin; 750 mM NEp, ethanol, PG) was “No” and the “Skin Blanch” value (human forearm skin; 750 mM NEp, ethanol, PG, 20 min) was “+++++ (+++++ = 90-100% blanch)”.
In the case of `CNC[C@H](O)c1cccc(O)c1.Cl` [PhE, R (−) phenylephrine-HCl], the “Heat required” value [1, 26] is reported as 12 s, the “Sample status after 24 hr at 4° C.” value [1, 26] is reported as “precipitate” and the “Sample status after 24 hr at ~22° C.” value [1, 26] is reported as “precipitate”. For the same molecule, the “Heat required” value [1, 27] was 12 s, the “Sample status after 24 hr at 4° C.” value [1, 27] was “precipitate” and the “Sample status after 24 hr at ~22° C.” value [1, 27] was “precipitate”. The “Heat required” value [1, 28] was 16 s, the “Sample status after 24 hr at 4° C.” value [1, 28] was “precipitate” and the “Sample status after 24 hr at ~22° C.” value [1, 28] was “precipitate”. The “Heat required” value [1, 29] was 8 s, the “Sample status after 24 hr at 4° C.” value [1, 29] was “precipitate” and the “Sample status after 24 hr at ~22° C.” value [1, 29] was “precipitate”. For the same molecule, the “Heat required” value [1, 30] was 8 s, the “Sample status after 24 hr at 4° C.” value [1, 30] was “precipitate” and the “Sample status after 24 hr at ~22° C.” value [1, 30] was “clear”.
